{
  "source": "patent EP1604983A1",
  "about": "“RECEPTOR ANTAGONIST” (Takeda Pharmaceutical Company Limited, priority 2003, dated 2004)",
  "key": {"[1]": {"experiment": "Cued fear conditioning (freezing) after ventricle administration of RFRP-1", "assay_type": "in vivo, Wistar male rat", "details": "rat, 3 nmol into a ventricle, on 2 day (48 hours after training); saline group 46.5% (Fig. 4)", "experimental": "(§1) A value indicates mean ± […] (mean ± SE) (n = 4). • Fig. 4 indicates a ratio of freezing in cued fear conditioning when RFRP-1 (-◆-) and a physiological saline (-○-) are administered in a ventricle. An ordinate axis indicates freezing (%) of one day and two day after administration, respectively, expressed by mean ± standard error.\nAmnesia promoting activity of RFRP\nSince an RFRP nerve is projected on amygdaloid complex, in order to study involvement of RFRP in amygdaloid complex-dependent memory•learning ability, influence under cued fear conditioning due to ventricle administration of RFRP-1 was studied. A mature Wistar male rat (weight 280 to 320 g at operation) was anesthetized with 50 mg/kg of pentobarbital by intraperitoneal administration, and a rat was fixed in a brain localization apparatus. A tooth cutting bar was set lower by 3.3 mm from an interoralline. A cranial bone was exposed, and a hole was opened in a bone using a dental drill in order to embed a guide cannulae AG-12 (internal diameter 0.4 mm, external diameter 0.5 mm, Eicom) in a ventricle. In addition, an anchor screw was embedded in four places at a periphery thereof. A stainless guide cannulae AG-12 was inserted so that its tip was positioned at an upper part of a side ventricle. […]"}, "[2]": {"experiment": "Blood glucose concentration after intravenous administration of RFRP-1 to rat under no anesthesia", "assay_type": "in vivo, Wistar male rat", "details": "10 nmol/kg, 5 minutes and 15 minutes after administration, compared with physiological saline group (Fig. 1)", "experimental": "as §1\nBlood glucose concentration increasing activity of RFRP\nAs RFRP, human RFRP-1 (37 amino acids) consisting of an amino acid sequence of 56th (Ser) to 92nd (Phe) of an amino acid sequence represented by SEQ ID No.: 3. Hereinafter, this peptide is abbreviated as RFRP-1.\nIn order to study influence of peripheral administration of RFRP-1 on a blood glucose concentration, operation for collecting blood under free moving was performed. A mature Wistar male rat (weight 310 to 350 g at operation) was anesthetized with 50 mg/kg of pentobarbital by intraperitoneal administration. The rat was fixed on an anatomic pad in a supine position, and a left jugular vein was exposed. […]\nOvernight after operation, 300 µl of blood was collected using a tuberculin injection syringe having a dose of 1 ml and a 25 gauge injection needle (both Telmo) before administration of RFRP-1. […] A blood glucose concentration was measured using Fuji Drichem 3500 (FUJIFILM)."}, "[3]": {"experiment": "Blood glucagon and insulin concentration after intravenous administration of RFRP-1 to rat", "assay_type": "in vivo, Wistar male rat", "details": "for blood glucagon concentration: intravenous, compared with physiological saline group (Fig. 2)", "experimental": "as §1\nPancreatic glucagon secretion promoting activity of RFRP\nIn order to study mechanism of blood glucose concentration increasing activity of RFRP-1, influence of RFRP-1 on a blood concentration of glucagon and insulin which are known as a hormone imparting a variation to a blood glucose concentration was studied. A mature Wistar male rat (weight 310 to 350 g at operation) was operated for collecting blood under free moving. Overnight after operation, 300 µl of a blood was collected using a tuberculin injection syringe having a dose of 1 ml and a 25 gauge injection needle (both Telmo) before administration of RFRP-1. In order to prevent blood coagulation, 3 µl of a 300 KIU/ml aprotinin solution containing 3 mg/ml EDTA had been placed into an injection syringe in advance. An Otsuka physiological saline or RFRP-1 dissolved in a physiological saline (80 nmol/mL) was intravenously administered through a tube at 1 mL/Kg. After 1, 3, 5 and 15 minutes from initiation of intravenous administration, each 300 µL of blood was collected from a jugular vein. The collected blood was centrifuged (13,000 rpm, 5 minutes) using a minor amount high speed cooling centrifuge (MR-150, Tommy Seiko), and the supernatant (plasma) was recovered."}, "[4]": {"tested_on": "human-type OT7T022", "experiment": "Binding inhibiting activity using human-type OT7T022-expressing CHO cell membrane fraction and 125I-labeled Y-RFRP-3", "details": "human-type OT7T022-expressing CHO cell membrane fraction 1 µg; 125I-labeled Y-RFRP-3 100 pM; room temperature 1.5 hours; read-out: IC50 value (binding inhibiting rate)", "experimental": "Assessment of binding inhibiting activity of test compound using human-type OT7T022-expressing CHO cell\n(1) Preparation of iodine-labeled entity of human-type RFRP-3 (Y-RFRP-3)\nA part thereof was 1/100 diluted, radioactivity was measured with a γ-counter, and the remaining authentic product was distributed, which was stored at -30°C.\n(2) Assessment of binding inhibiting activity\nTo a 96-well microplate were added 1 µg of a membrane fraction, a compound and Y-RFRP-3 labeled with ^125I, which had been diluted with a reaction buffer (50 mM Tris-HCl, 5 mM EDTA, 0.1% BSA, 0.5 mM PMSF, 20 µg/ml leupeptin, 0.1 µg/ml pepstatin A, 4 µg/ml E-64, 10 mM MgCl2, pH 7.5), to 100pM to react them at room temperature for 1.5 hours. For measuring non-specific binding, non-labeled Y-RFRP-3 was further added to […]. Then, a membrane fraction was transferred to a unifilter GF/C (Perkin Elmer) by filtering the reaction solution using a cell harvester (Perkin Elmer), and this was washed with a cooled 50 mM Tris buffer (pH 7.5) five times. The filter was dried, Microsinti (Packard) was added to the filter, and radioactivity was measured with Topcount (Packard).\nA binding inhibiting rate (IC50 value) of a test compound is shown in [Table 1]."}},
  "note": "No end group written: not given here.",
  "data": [
    {"substance": "RFRP-1 (MPHSFANLPLRF; not fully specified; ends and bridges not checked; UniProt Q9HCQ7 81-92, looked up)", "values": [
      {"measurement": "rate of freezing", "setting": "[1]", "result": 35.5, "unit": "%"},
      {"measurement": "blood glucose concentration", "setting": "[2]", "result": "significant (p<0.05, n = 4) activity of increasing a blood glucose concentration"},
      {"measurement": "blood insulin concentration", "setting": "[3]; intravenous (Fig. 3)", "result": "a variation due to administration of RFRP-1 was not recognized"},
      {"measurement": "blood glucagon concentration", "setting": "[3]; 5 minutes after administration", "result": "significant (p<0.01) increase was continued"},
      {"measurement": "blood glucagon concentration", "setting": "[3]; two minutes after administration", "result": "significant (p<0.01) increase in a blood glucagon concentration"}
    ]},
    {"substance": "tert-Butyl 7-bromo-4-hydroxy-2-neopentyl-1-oxo-1,2-dihydroisoquinoline-3-carboxylate [Example 10]", "values": [
      {"measurement": "IC50", "setting": "[4]", "result": "< 1000", "unit": "nM"}
    ]}
  ]
}
